Measurements taken from patent publication US20240415804A1, “METHOD OF TREATING PANCREATIC CANCER” (University of South Florida, priority 2022, published 2024).

Tests used:
[1] = tested on: miR-155; test: miR-155 gene expression in BM and tumor of OPC mice; type: in vivo, mouse; conditions: API 25 mg/kg IP 3 times per week for 2-3 weeks, vs OPC mice
Protocol: The inventors reported recently that API reduced tumor growth in an orthotopic (O) mouse model of PC (OPC)^12, which is a more clinically relevant model^69. To investigate if API targets miR-155 and regulates SHIP-1 expression in the BM and tumor of an OPC mouse model, OPC mice were treated with API at a dose of 25 mg/kg (IP) 3 times per week for 2-3 weeks. […] To generate orthotopic pancreatic models (OPC), anesthetized (1.5-3% isoflurane) mice were injected in the neck of the pancreas, via laparotomy^59, with sterile PBS (CTRL) or 1.25×10^4 Panc02 cells (OPC), in sterile 1×PBS. Once pancreatic tumors were confirmed through ultrasound imaging (Vevo 2100), a cohort of OPC mice received API (25 mg/kg, 100 μL volume) while CTRL and OPC mice received sterile PBS (vehicle), all via IP, three times per week until the end of the study^12. […] The PCR cycling parameters were 95° C. for 10 min followed by 40 cycles of a denaturing step at 95° C. for 15 s and an annealing/extension step at 60° C. for 1 min. All reactions were performed in triplicate. Relative expression of miR-155 was calculated using the comparative […] method normalized to a mouse endogenous control gene snoRNA202 and human endogenous control gene U6 (Assay IDs: 001232 and 001093).

[2] = tested on: miR-155; test: miR-155 gene expression in tumors of KC-HPC mice; type: in vivo, mouse; conditions: API 25 mg/kg IP three times per week for 17 days, vs vehicle
Protocol: To build on these findings, the inventors then used a novel pancreatic cancer cell line, UN-KC-6141, that resembles human PC due to its expression of a mutated Kras and generated mice harboring these tumor cells, called KC-HPC mice. Such mice were treated with API at a dose of 25 mg/kg (IP) three times per week for 17 days. The inventors examined if API also targets miR-155 and regulates SHIP-1 in the tumors from KC-HPC mouse model. […] The HPC models were euthanized 21-28 days post-injection, while the KC-HPC models were euthanized 16-17 days post-injection. miRNA extraction of PC cells (treated with miR-155 inhibitor and/or API), BM and digested pancreatic tumors cells was performed using a mirVana miRNA Isolation Kit (Applied Biosystems, Waltham, MA, USA) as per the manufacturer's instructions. miRNA was reverse transcribed into cDNA using TaqMan miRNA reverse transcription kit (Applied Biosystems) with gene-specific stem-loop RT primers according to the manufacturer's instructions. cDNA was then loaded onto either mmu-miR-155 or ipu-miR-155 TaqMan miRNA assays (Assay IDs: 002571 and 467534_mat) using TaqMan Fast Universal PCR Master mix (Applied Biosystems) and miR-155 detected with an Eppendorf Master cycler real plex 4. […]

[3] = tested on: orthotopic (O) mouse model of PC (OPC); conditions: earlier report (ref 12), cited from earlier work
[4] = tested on: PC-bearing mice; conditions: cited from earlier work
[5] = PC mouse model treated with API, earlier report (ref 12)
[6] = PC-bearing mice, previous results (ref 12)

O=c1cc(-c2ccc(O)cc2)oc2cc(O)cc(O)c12 [API, 40,5,7-Trihydroxyflavone, 5,7-Dihydroxy-2-(4-hydroxyphenyl)-4-benzopyrone]
miR-155 gene expression in BM [1]: inhibit the overexpression | miR-155 gene expression in pancreatic tumor [1]: significant decrease | miR-155 gene expression in tumor [2]: significantly reduced | necrosis of pancreatic tumor cells (H&E staining) ([3]; API treatment of OPC mice): induced necrosis | tumor growth ([3]; OPC mouse model): reduced | tumor weights ([4]; PC mice, previous report (refs 12, 55)): decreases | intratumoral Treg percentages [4, 5]: significant reduction | splenic Treg percentages [4, 5]: significant reduction | IFN-γ production from intratumoral CD8+ T cells [4, 6]: increases | granzyme B [4, 6]: increases | perforin [4, 6]: increases
